Reference: patent US20260042755A1, “GPR6 INVERSE AGONISTS” (MapLight Therapeutics, Inc., priority 2022, published 2026)

Legend:
[1] = target: T1, GPR6 (Homo sapiens, UniProt P46095); experiment: GPR6 antagonist functional cAMP assay (LANCE Ultra cAMP TR-FRET, CHO cells stably expressing GPR6); type: cell-based; settings: CHO cells stably expressing GPR6, cAMP assay (Example 24)
T1 construct: expressed in transfected cells; host or cells: CHO cells
How it was run: (§1)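 Suspended cells were plated at 10,000 per well in Krebs-Ringer bicarbonate buffer containing 0.1% BSA and 150 μM Ro 20-1724, then treated with compounds for 45 min at 37 °C. Intracellular cAMP was then quantified by TR-FRET immunoassay.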

[2] = target: T2, GPR3 (Homo sapiens, UniProt P46089); experiment: GPR3 antagonist functional cAMP assay (LANCE Ultra cAMP TR-FRET, CHO cells stably expressing GPR3); type: cell-based; settings: CHO cells stably expressing GPR3, cAMP assay (Example 24)
T2 construct: expressed in transfected cells; host or cells: CHO cells
How it was run: as §1

T1 sequence (P46095 whole entry): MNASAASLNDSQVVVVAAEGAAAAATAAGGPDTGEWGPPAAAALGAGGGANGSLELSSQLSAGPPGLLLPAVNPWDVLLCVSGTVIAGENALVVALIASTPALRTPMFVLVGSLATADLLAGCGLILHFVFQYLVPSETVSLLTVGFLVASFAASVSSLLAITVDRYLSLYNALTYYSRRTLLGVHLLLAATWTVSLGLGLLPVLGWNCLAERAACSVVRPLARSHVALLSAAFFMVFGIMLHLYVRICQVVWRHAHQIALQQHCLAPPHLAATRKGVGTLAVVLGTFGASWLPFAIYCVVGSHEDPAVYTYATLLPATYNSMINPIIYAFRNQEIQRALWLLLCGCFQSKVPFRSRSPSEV
T2 sequence (P46089 whole entry, species assumed): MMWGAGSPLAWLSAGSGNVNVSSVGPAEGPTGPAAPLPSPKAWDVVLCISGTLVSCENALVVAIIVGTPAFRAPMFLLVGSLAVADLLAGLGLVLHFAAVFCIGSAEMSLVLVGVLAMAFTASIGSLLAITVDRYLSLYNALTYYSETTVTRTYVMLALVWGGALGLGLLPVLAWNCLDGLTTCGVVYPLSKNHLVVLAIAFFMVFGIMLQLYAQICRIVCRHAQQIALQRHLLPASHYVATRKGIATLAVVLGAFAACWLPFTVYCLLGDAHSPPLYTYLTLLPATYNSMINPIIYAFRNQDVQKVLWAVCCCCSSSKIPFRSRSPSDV

SMILES | IC50 [1] [nM] | IC50 [2] [nM]
CC(=O)N1CCc2nc(N3CCC(Oc4ccc(F)cc4F)CC3)c(-c3cccc(F)n3)nc2C1 [Compound 57, 1-{2-[4-(2,4-difluorophenoxy)piperidin-1-yl]-3-(6-fluoropyridin-2-yl)-5H,6H,7H,8H-pyrido[3,4-b]pyrazin-6-yl}ethan-1-one] | 1000 to 30000 | 1000 to 30000
O=S1(=Nc2ccc(F)cc2F)CCN(c2nc3ccncc3nc2-c2cn[nH]c2)CC1 [Compound 58, 4-(3-(1H-pyrazol-4-yl)pyrido[3,4-b]pyrazin-2-yl)-1-((2,4-difluorophenyl)imino)-1l6-thiomorpholine 1-oxide] | 1000 to 30000 | 1000 to 30000
COc1cccc(-c2nc3c(nc2N2CCC(Oc4ccc(F)cc4F)CC2)CCN(S(C)(=O)=O)C3)n1 [Compound 59, 2-(4-(2,4-difluorophenoxy)piperidin-1-yl)-3-(6-methoxypyridin-2-yl)-6-(methylsulfonyl)-5,6,7,8-tetrahydropyrido[3,4-b]pyrazine] | 1000 to 30000 | 1000 to 30000
CC(=O)N1CCc2nc(N3CCC(Oc4ccc(F)cc4F)CC3)c(-c3cccc(OC4CCOC4)n3)nc2C1 (centres unmarked) [Compound 61, 1-{2-[4-(2,4-difluorophenoxy)piperidin-1-yl]-3-[6-(oxolan-3-yloxy)pyridin-2-yl]-5H,6H,7H,8H-pyrido[3,4-b]pyrazin-6-yl}ethan-1-one] | 1000 to 30000 | 1000 to 30000
CC(=O)N1CCc2nc(N3CCC(Oc4ccc(F)cc4F)CC3)c(-c3cn[nH]c3C3CC3)nc2C1 [Compound 62, 1-[3-(5-cyclopropyl-1H-pyrazol-4-yl)-2-[4-(2,4-difluorophenoxy)piperidin-1-yl]-5H,6H,7H,8H-pyrido[3,4-b]pyrazin-6-yl]ethan-1-one] | 1000 to 30000 | 1000 to 30000
COCC1(Oc2ccc(F)cc2F)CCN(c2nc3ccncc3nc2-c2cn[nH]c2)CC1 [Compound 63, 2-(4-(2,4-difluorophenoxy)-4-(methoxymethyl)piperidin-1-yl)-3-(1H-pyrazol-4-yl)pyrido[3,4-b]pyrazine] | 1000 to 30000 | 100 to 1000
Clc1ccc(Cl)c(CN2CCN(c3nc4cnccc4nc3-c3ncc[nH]3)CC2)c1 [Compound 64, 1-[(2,5-dichlorophenyl)methyl]-4-[2-(1H-imidazol-2-yl)pyrido[3,4-b]pyrazin-3-yl]piperazine] | 100 to 1000 | 100 to 1000
Fc1ccc(CN2CCN(c3nc4cnccc4nc3-c3ncc[nH]3)CC2)c(Cl)c1 [Compound 65, 1-[(2-chloro-4-fluorophenyl)methyl]-4-[2-(1H-imidazol-2-yl)pyrido[3,4-b]pyrazin-3-yl]piperazine] | 1000 to 30000 | 100 to 1000
CC(=O)N1CCc2nc(N3CCC(Oc4ccc(F)cc4F)CC3)c(-c3cc[nH]c(=O)c3)nc2C1 [Compound 66, 4-{6-acetyl-2-[4-(2,4-difluorophenoxy)piperidin-1-yl]-5H,6H,7H,8H-pyrido[3,4-b]pyrazin-3-yl}-1,2-dihydropyridin-2-one] | 1000 to 30000 | 1000 to 30000
COCn1ccnc1-c1nc2c(nc1N1CCC(Oc3ccc(F)cc3F)CC1)CCN(C(C)=O)C2 [Compound 67, 1-{2-[4-(2,4-difluorophenoxy)piperidin-1-yl]-3-[1-(methoxymethyl)-1H-imidazol-2-yl]-5H,6H,7H,8H-pyrido[3,4-b]pyrazin-6-yl}ethan-1-one] | 1000 to 30000 | 1000 to 30000
CC(=O)N1CCc2nc(N3CCC(Oc4ccc(F)cc4F)CC3)c(-c3cccc(C)n3)nc2C1 [Compound 68, 1-{2-[4-(2,4-difluorophenoxy)piperidin-1-yl]-3-(6-methylpyridin-2-yl)-5H,6H,7H,8H-pyrido[3,4-b]pyrazin-6-yl}ethan-1-one] | 100 to 1000 | 1000 to 30000
CC(=O)N1CC=C(c2nc3c(nc2N2CCC(Oc4ccc(F)cc4F)CC2)CCN(C(C)=O)C3)CC1 [Compound 69, 1-(3-(1-acetyl-1,2,3,6-tetrahydropyridin-4-yl)-2-(4-(2,4-difluorophenoxy)piperidin-1-yl)-7,8-dihydropyrido[3,4-b]pyrazin-6(5H)-yl)ethan-1-one] | 1000 to 30000 | 1000 to 30000
CS(=O)(=O)N1CCc2nc(N3CCC(Oc4ccc(F)cc4F)CC3)c(-c3cn[nH]c3)nc2C1 [Compound 70, 2-(4-(2,4-difluorophenoxy)piperidin-1-yl)-6-(methylsulfonyl)-3-(1H-pyrazol-4-yl)-5,6,7,8-tetrahydropyrido[3,4-b]pyrazine] | 100 to 1000 | 1000 to 30000
CC(=O)N1CCC=C(c2nc3c(nc2N2CCC(Oc4ccc(F)cc4F)CC2)CCN(C(C)=O)C3)C1 [Compound 71, 1-[3-(1-acetyl-1,2,5,6-tetrahydropyridin-3-yl)-2-[4-(2,4-difluorophenoxy)piperidin-1-yl]-5H,6H,7H,8H-pyrido[3,4-b]pyrazin-6-yl]ethan-1-one] | 1000 to 30000 | 1000 to 30000
CC(=O)N1CC=C(c2nc3c(nc2N2CCC(Oc4ccc(F)cc4F)CC2)CCN(C(C)=O)C3)C1 [Compound 72, 1-(3-{6-acetyl-2-[4-(2,4-difluorophenoxy)piperidin-1-yl]-5H,6H,7H,8H-pyrido[3,4-b]pyrazin-3-yl}-2,5-dihydro-1H-pyrrol-1-yl)ethan-1-one] | 1000 to 30000 | 1000 to 30000
CC(=O)N1CCc2nc(N3CCC(Oc4ccc(F)cc4F)CC3)c(-c3cnn(CCC#N)c3)nc2C1 [Compound 73, 3-(4-{6-acetyl-2-[4-(2,4-difluorophenoxy)piperidin-1-yl]-5H,6H,7H,8H-pyrido[3,4-b]pyrazin-3-yl}-1H-pyrazol-1-yl)propanenitrile] | 100 to 1000 | 1000 to 30000
COCCn1cc(-c2nc3c(nc2N2CCC(Oc4ccc(F)cc4F)CC2)CCN(C(C)=O)C3)cn1 [Compound 74, 1-{2-[4-(2,4-difluorophenoxy)piperidin-1-yl]-3-[1-(2-methoxyethyl)-1H-pyrazol-4-yl]-5H,6H,7H,8H-pyrido[3,4-b]pyrazin-6-yl}ethan-1-one] | 100 to 1000 | 1000 to 30000
CC(=O)N1CCc2nc(N3CCC(Oc4ccc(F)cc4F)CC3)c(-c3nccs3)nc2C1 [Compound 75, 1-{2-[4-(2,4-difluorophenoxy)piperidin-1-yl]-3-(1,3-thiazol-2-yl)-5H,6H,7H,8H-pyrido[3,4-b]pyrazin-6-yl}ethan-1-one] | 1000 to 30000 | 1000 to 30000
CC(=O)N1CCc2nc(N3CCC(Oc4ccc(F)cc4F)CC3)c(-c3cnn(-c4ccccc4)c3)nc2C1 [Compound 76, 1-{2-[4-(2,4-difluorophenoxy)piperidin-1-yl]-3-(1-phenyl-1H-pyrazol-4-yl)-5H,6H,7H,8H-pyrido[3,4-b]pyrazin-6-yl}ethan-1-one] | 100 to 1000 | 1000 to 30000
CC(=O)N1CCc2nc(N3CCC(Oc4ccc(F)cc4F)CC3)c(-c3cnn(C4COC4)c3)nc2C1 [Compound 77, 1-{2-[4-(2,4-difluorophenoxy)piperidin-1-yl]-3-[1-(oxetan-3-yl)-1H-pyrazol-4-yl]-5H,6H,7H,8H-pyrido [3,4-b]pyrazin-6-yl}ethan-1-one] | 100 to 1000 | 1000 to 30000
CC(=O)N1CCc2nc(N3CCC(Oc4ccc(F)cc4F)CC3)c(-c3ccn(C)c(=O)c3)nc2C1 [Compound 78, 4-{6-acetyl-2-[4-(2,4-difluorophenoxy)piperidin-1-yl]-5H,6H,7H,8H-pyrido[3,4-b]pyrazin-3-yl}-1-methyl-1,2-dihydropyridin-2-one] | 1000 to 30000 | 1000 to 30000
CC(=O)N1CCc2nc(N3CCC(Oc4ccc(F)cc4F)CC3)c(-c3ccccn3)nc2C1 [Compound 79, 1-{2-[4-(2,4-difluorophenoxy)piperidin-1-yl]-3-(pyridin-2-yl)-5H,6H,7H,8H-pyrido[3,4-b]pyrazin-6-yl}ethan-1-one] | 1000 to 30000 | 1000 to 30000
COc1cccnc1-c1nc2c(nc1N1CCC(Oc3ccc(F)cc3F)CC1)CCN(C(C)=O)C2 [Compound 80, 1-{2-[4-(2,4-difluorophenoxy)piperidin-1-yl]-3-(3-methoxypyridin-2-yl)-5H,6H,7H,8H-pyrido[3,4-b]pyrazin-6-yl}ethan-1-one] | ≥ 30000 | 1000 to 30000
CC(=O)N1CCc2nc(N3CCC(Oc4ccc(F)cc4F)CC3)c(-c3cnn(CC#N)c3)nc2C1 [Compound 81, 2-(4-{6-acetyl-2-[4-(2,4-difluorophenoxy)piperidin-1-yl]-5H,6H,7H,8H-pyrido[3,4-b]pyrazin-3-yl}-1H-pyrazol-1-yl)acetonitrile] | 100 to 1000 | 1000 to 30000
CC(=O)N1CCc2nc(N3CCC(Oc4ccc(F)cc4F)CC3)c(-c3cnn(C4CS(=O)(=O)C4)c3)nc2C1 [Compound 82, 3-(4-{6-acetyl-2-[4-(2,4-difluorophenoxy)piperidin-1-yl]-5H,6H,7H,8H-pyrido[3,4-b]pyrazin-3-yl}-1H-pyrazol-1-yl)-1λ^6-thietane-1,1-dione] | 1000 to 30000 | 1000 to 30000
CC(=O)N1CCc2nc(N3CCC(Oc4ccc(F)cc4F)CC3)c(-c3cnc[nH]3)nc2C1 [Compound 84, 1-{2-[4-(2,4-difluorophenoxy)piperidin-1-yl]-3-(1H-imidazol-5-yl)-5H,6H,7H,8H-pyrido[3,4-b]pyrazin-6-yl}ethan-1-one] | 1000 to 30000 | 1000 to 30000
Fc1ccc(OC2CCN(c3nc4ccncc4nc3-c3ccn[nH]3)CC2)c(F)c1 [Compound 85, 4-(2,4-difluorophenoxy)-1-[3-(1H-pyrazol-5-yl)pyrido[3,4-b]pyrazin-2-yl]piperidine] | 1000 to 30000 | 1000 to 30000
COc1cccc(-c2nc3c(nc2N2CCC(Oc4ccc(F)cc4F)CC2)CCN(C(C)=O)C3)n1 [Compound 86, 1-(2-(4-(2,4-difluorophenoxy)piperidin-1-yl)-3-(6-methoxypyridin-2-yl)-7,8-dihydropyrido[3,4-b]pyrazin-6(5H)-yl)ethan-1-one] | 100 to 1000 | 1000 to 30000
